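Compound exposure: 48 hours, 5 concentrations, 96-well plates. Abbreviation: GI50, concentration required for 50% inhibition of growth. TGI is the concentration that stops growth completely.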

This is an account of results in PubChem BioAssay (NCI).

Holding throughout (experiment): NCI tumour cell line growth inhibition, 48 h
For test [1], the system named is DLD-1 colon.
Test [2] deals with DMS 114 small cell lung.
Test [3] deals with XF 498 CNS.
Test [4] concerns LXFL 529 NSCLC.
Test [5] deals with DMS 273 small cell lung.
Test [6] has as its system SNB-78 CNS.
Test [7] deals with M19-MEL melanoma.
Test [8] concerns HOP-18 NSCLC.
Test [9] deals with RXF-631 renal.
Test [10] deals with P388 leukemia.
Test [11] has as its system P388/ADR leukemia.
The test system of test [12] is SN12K1 renal.

Consider `CSc1cc(C(C)(C)C)ccc1C(O)c1ccc(C(C)(C)C)cc1SC`, for which the TGI stood at 21.7 µM in [1]; 22.5 µM in [2]; 23.6 µM in [3]; 32.5 µM in test [4]; 26.9 µM in test [5]; 40.3 µM in test [6]. Besides, the results for the TGI in test [7] and in test [8] were 23.5 µM and 34 µM, respectively.
Take `N#CC(C#N)=C1CCC2C(=C(C#N)C#N)CCC12` (stereo unspecified): the TGI in test [1], in test [9], in test [2], in [3], in test [4] and in test [5] was more than 100 µM each time. In addition, the TGI in test [6] and in [7] was more than 100 µM each time.
For `CC(=O)[CH-]C(=O)c1ccccc1.CC(=O)[CH-]C(=O)c1ccccc1.CC(=O)[CH-]C(=O)c1ccccc1.[Br-].[Zr+4]`, the figures for the GI50 in [1], in test [4] and in [7] were 28.1 µM, 70.7 µM and 85.8 µM, respectively. For the same compound, the TGI in test [1], in [4] and in test [7] was more than 100 µM throughout.
For `FC(F)(F)c1nc(Br)[nH]c1C(F)(F)F`, the TGI in [1], in [9], in [2], in [3], in [4] and in [5] was more than 100 µM throughout. For the same compound, the TGI is more than 100 µM in [6], more than 100 µM in test [7] and 93.2 µM in test [8].
In the case of `C=C1C(C(=O)O)C1C(=O)O` (stereo unspecified), the TGI in [1], in test [2], in [3], in [5], in [6] and in test [7] was more than 100 µM each time. This compound registered a TGI in test [8] of more than 100 µM.
For `O=c1[nH]c(=O)n(C2OC(CO)C(O)C2O)cc1F` (stereo unspecified), the TGI in test [1], in test [9], in test [2], in test [3], in test [4] and in test [5] was more than 100 µM in each case. The figures for the TGI in test [6], in test [7] and in test [8] were 60.1 µM, more than 100 µM and more than 100 µM, respectively.
In the case of `CN(C)CCNC(=O)c1cccc2c1nc(-c1ccncc1)c1ccccc12`, the TGI in [1] was 14.2 µM; in test [2], 14.2 µM; in test [5] it was 12.3 µM; in [6], 23.2 µM; in test [7] it was 11.9 µM; in test [8] it was 51.1 µM.
On to `CC[P+]1(c2ccccc2)CCCCC1`, for which the TGI in [1], in test [9], in test [2], in test [4], in [5] and in [6] was more than 100 µM each time. Further, the TGI in [7] and in test [8] was more than 100 µM in each case.
Turning to `O=C(OCc1ccccc1)n1cccc1`, the TGI in test [1], in test [9], in test [2], in test [3], in test [4] and in test [5] was more than 100 µM each time. Besides, the TGI in [6], in [7] and in test [8] was more than 100 µM in each case.
Regarding `NC(=O)c1ncn2c(=O)n(CCCl)nnc12`, the TGI in test [10] turned out to be 482 µM; in [1], 720 µM; in test [2], 131 µM; in test [3], 149 µM; in test [5] it was 275 µM; in [6], 527 µM. In addition, the TGI is 335 µM in [11], 376 µM in test [7], 1130 µM in test [8] and 266 µM in [12].
As for `O=C1CCc2ccc(O)c(c2)Oc2ccc(cc2)[C@@H]2O[C@@H]2CO1`, the TGI in test [1] was more than 100 µM; in test [2], 67 µM; in test [3] it was 30.6 µM; in test [4], more than 100 µM; in test [7], more than 100 µM; in [8], 80.7 µM.
